# Experimental data as given in patent US20090156471A1, “Use of anti-amyloid agents for treating and typing pathogen infections” (RAMOT AT TEL AVIV UNIVERSITY LTD., priority 2005, published 2009).
# “Also recorded” adds a separate entry of the source.
# B1: QHGGGN peptide (NH2-QHGGGN-COOH) (peptide)
# peptide: H-QHGGGN-OH
# notes: also called curli QHGGGN hexapeptide repeat
# B2: QFGGGN peptide (NH2-QFGGGN-COOH) (peptide)
# peptide: H-QFGGGN-OH
# notes: also called curlin repeat; oligopeptide repeat QFGGGN
# Experiments:
# [1] = TEM analysis of peptide self-assembly into fibrillar structures; type: physicochemical; details: for self-assembly / fibril formation observed by TEM: peptide in water 10 to 50 mg/ml, room temperature, 3-6 days (micrographs: 50 mg/ml, 1 week)
# Method: TEM analysis—In all examined cases, peptides were dissolved in water to a concentration of 10 to 50 mg/ml and incubated at room-temperature (RT). Fresh stocks were prepared for each and every experiment. […] Following 1 minute, excess fluid was removed, and the grid was then negatively stained with 10 μl of 2% uranyl-acetate in water. Following 2 minutes, excess fluid was removed from the grid. Samples were viewed in JEOL 1200 EX transmission electron microscope. In the experiments shown, 50 mg/ml peptides were used and micrographs were taken following 1 week. Bar represents 100 nm.
# [2] = tested on: curli-expressing E. coli XL1-Blue(pMRInv) binding to bovine fibronectin; assay: Fibronectin binding (adhesion of bacteria to fibronectin coated wells); type: cell-based, Escherichia coli; details: 0.3 mM peptide, A405, FIG. 3b
# Method: The adhesion of bacteria to fibronectin coated wells was determined by measuring absorbance at 405 nm. For (A) and (B), each column is the average of three experiments.
# Fibronectin binding—Binding was quantified using the protocol described by Gophna et al (32). Briefly, wells of microtiter plates were coated with 100 μl of 5 μg/ml solution of bovine fibronectin (Sigma). The two strains of bacteria were grown to mid-exponential phase (A600, 0.5-0.6) with the various peptides in LB, harvested and suspended in saline. Wells were blocked with 200 μl milk (3%) for 2 hours at RT. Two hundreds micro-liter saline containing 5×10^8 cells/ml bacteria (A600, 0.9) were added to the wells with 0.3 mM of the suitable peptide and were incubated at RT for 3 h. Wells were washed twice with 200 μl PBS-T (0.05% Tween) and once with 200 μl PBS. The optical density of adherent bacteria was determined by the use of a microplate reader (ELISA) (A405), subtracting the optical density of an empty coated well.
# [3] = tested on: curli-expressing E. coli K-12 XL1-Blue(pMRInv); assay: Quantitative Congo red (CR) binding of curli expressing bacteria; details: 0.3 mM peptide, FIG. 3a
# Method: Binding units represent the decrease in absorbance (A487) of the CR solution after incubation with bacteria.
# Congo red binding—Bacterial inoculums were grown in 6 ml LB medium for 5-7 hours at 37° C. in the presence or absence of 0.3 mM peptide inhibitor, until the cultures reached A600 of approximately 1.2. Each culture was then pelleted (1 min/13200×g) and resuspended in 6 ml saline (0.8% NaCl). Three double dilutions were performed for each culture and bacterial concentrations were determined at A600. Each dilution was divided into 3 microtubes (1 ml for each) and pelleted by centrifugation for 2 min/13200×g. A 0.004% solution of CR (in saline) was prepared and optical density at 487 nm was measured against a saline background. One thousand, 500 and 200 μl of CR solution were then added to each dilution triplets, the bacteria were well resuspended in the dye and left for 10 min incubation at RT. Next, a second centrifugation (2 min/13200×g) was performed and the supernatants containing the remaining dye were recovered. The optical density at 487 nm of each supernatant was determined and compared to the initial absorbance.
# Inhibition was examined by directly applying the putative peptide inhibitor at time zero to a growing culture in liquid medium at 37° C. Cells analyzed for CR binding when reached optical density (A600) of approximately 1.2 absorbance units (AU).
# [4] = tested on: E. coli XL1-Blue(pMRInv) internalization into HEK293 cells; assay: Internalization assay (antibiotic protection assay) in HEK293 cells; details: 0.4 mM peptide, HEK293, 3 h at 37° C., gentamicin protection
# Method: Internalization assay—Epithelial cells were grown overnight in 24-well plates to 80% confluence (˜10^5 cells per well). Bacteria were inoculated in LB broth and grown at 37° C. for 16 h, diluted 100-fold, and grown to mid-exponential phase (A600, 0.4) in the presence or absence of 0.4 mM peptide inhibitor. Bacteria were then diluted to A600, 0.1 in LB and 20 μl were added to each well with epithelial monolayer for 3 h incubation at 37° C. […] Cells were washed once with PBS, pH 7.3, and PBS containing 100 μg/ml gentamicin was added. After 1.5 h incubation, the cells were washed twice in PBS, and lysed by 5 min incubation with ice-cold 0.5% triton X-100. Appropriate bacterial dilutions were plated to determine the number of viable internalized bacteria. E. coli XL1-Blue was maintained on Luria-Bertani (LB) agar and E. coli XL1-Blue(pMRInv) was maintained on LB agar containing 30 μg/ml kanamycin. […]
# For that purpose, an antibiotic protection assay was effected using HEK293 cell-line. […] Following exposure to the antibiotic gentamicin, eukaryotic cells were analyzed for bacteria internalization rate by the determination of the colony forming units (cfu) of the surviving bacteria (FIG. 4a).
# [5] = Circular dichroism (CD) spectra and copper binding
# Method: FIGS. 2a-b are graphs showing copper binding to QHGGGN (SEQ ID NO: 5) peptide repeat. […] The titration of metal ions to the oligopeptide was performed using small aliquots from stock aqueous solutions of 25 mM CuCl2.2H2O. CD spectrum (250-800 nm) of QHGGGN (0.5 mM, pH 7.5) was measured with the addition of Cu^2+ in increments of 0.0125 mM (as a minimum) of CuCl2 (0.5 μl) from 0 up to 0.65 mM. Typically, 50 mM HEPES pH 7.5 buffer was used for CD studies. Spectra were obtained using an AVIV spectrapolarimeter and a 5 mm (FIG. 2a) and 10 mm (FIG. 2b) path length cuvettes.
# Circular dichroism (CD) spectra and Copper binding—Circular Dichroism (CD) spectra, 250-800 nm, of the curli QHGGGN hexapeptide repeat in the absence and presence were preformed. […] The titration of metal ions to the oligopeptide was performed using small aliquots from stock aqueous solutions of 25 mM CuCl2-2H2O. CD spectrum (250-800 nm) of QHGGGN (0.5 mM, pH 7.5) was measured with the addition of Cu^2+ in increments of 0.0125 mM (as a minimum) of CuCl2 (0.5 μl) from 0 up to 0.65 mM. 50 mM HEPES pH 7.5 buffer was used for CD studies.
# [6] = biological target: the molecule itself; assay: TEM of peptide self-assembly
molecule,measurement,setting,value
QAGGGN,structures observed by TEM after prolonged incubation,[1]; following 30 days of incubation,only minor amounts of amorphous aggregates
same,self-assembly / fibril formation observed by TEM,[1],ability was lost; also recorded: no ordered structures could be detected
same,bacterial adhesion to fibronectin coated wells,[2],no significant effect
same,binding of CR in comparison to XL1-Blue(pMRInv) grown in absence of peptide,[3],no significant difference
GQNHGG,self-assembly / fibril formation observed by TEM,[1],fibril-like structured
QFGGGN,fibril formation in a mixture of QFGGGN and QAGGGN peptides,"[1]; mixture with QAGGGN, 3-6 days incubation, TEM",not inhibited
same,self-assembly / fibril formation observed by TEM,[1],assembled into fibrillar structures
same,self-assembly / fibril formation observed by TEM,[1]; listed as NH2-QFGGGN-COOH,well-ordered fibrillar structures
same,bacterial adhesion to fibronectin coated wells,[2],no significant effect
same,binding of CR in comparison to XL1-Blue(pMRInv) grown in absence of peptide,[3],no significant difference
same,amount of internalized bacteria (cfu) in eukaryotic cells,[4],did not interfere with bacterial invasion process
NHQGGG,self-assembly / fibril formation observed by TEM,[1],small amount but highly ordered assemblies
HGQGNG,aggregation potential (amount of aggregates) of scrambled QHGGGN sequences,"[1]; TEM, FIG. 1c",highly aggregative and much more abundant
same,self-assembly / fibril formation observed by TEM,[1],amorphous aggregates
QHGGGN [curli hexapeptide repeat],fibrillization in the presence of copper,"[1]; electron microscopy, 48 hours with equimolar CuCl2 in 50 mM HEPES, pH 7.5, room-temperature",did not induce fibrillization
same,self-assembly / fibril formation observed by TEM,[1],assembled into fibrillar structures
same,self-assembly / fibril formation observed by TEM,[1]; listed as NH2-QHGGGN-COOH,well-ordered fibrillar structures
same,Cu^2+ binding stoichiometry,"[5]; CD signal at 590 nm, peptide 0.5 mM, pH 7.5, 50 mM HEPES, CuCl2 0 up to 0.65 mM",equimolar binding stoichiometry; also recorded: single Cu^2+ ion binding for each peptide molecule
same,affinity of copper binding for a single repeat,[5]; binding curve sigmoid at concentrations in the hundreds of μM range,not high
B1,binding result,[6],binds
B2,binding result,[6],binds
